Entries after “also recorded” stand apart in the source; their conditions may differ. Peptide text beside a SMILES is read from it.
Key:
Type in all cases: in vivo, Mice (C57B16)
[1] = tested on: Lewis Lung Carcinoma (LLC); test: Tumor response in mice bearing LLC tumor during and after treatment with small peptides (Example II); conditions: for tumor growth curves compared with thalidomide: FIG. 1; for tumor growth curves compared with thalidomide / effect on tumor growth: result in words; for tumor volume day 21: average tumor volume on day 21, s.c. LLC, i.p. injection Mon/Wed/Fri; for tumor volume day 21 / mice showing a tumor response: 6 mice per group; for tumor control: mice with complete tumor control for 56 days / mice in group; for Response rate CR: number of mice with complete response; for Response rate CR / Response rate NC / Response rate PR / Response rate PD: of 6; for Response rate NC: number of mice with no change (stable disease); for Response rate PR: number of mice with partial remission; for Response rate PD: number of mice with progressive disease; for mice showing a tumor response: response = maximally a growth of 25% within seven days; for effect on tumor growth: i.p. peptide, LLC tumor
Description: Animals and tumor model: Mice (C57B16) are transplanted with the syngeneic Lewis Lung Carcinoma (LLC) subcutaneously.
Treatment modalities: mice are treated with small peptides or control substances beginning on the day of transplantation by i.p. injection. Mice are injected on Monday, Wednesday and Friday, until end of experiment. Experiment ends are based on: tumor size >20 mm, suffering of the animal, weight loss over 20%, ulcerations etc. Otherwise the experiment is terminated eight weeks after start.
Tumor diameter is measured in two directions by caliper measurements and tumor volume (V) is calculated using the formula V=0.4(A^2×B) (where B represents the largest diameter and A the diameter perpendicular to B). The classification of tumor response is: progressive disease (PD), increase of tumor volume (>50%) within seven days (between day 3 and day 10 after begin of treatment); stable disease, tumor volume equal to volume at day 3 in a range of −25% and +25%; partial remission (R), tumor volume −25% to −90%, and complete response CR, (no) measurable tumor at 56 days after start of treatment.
Tumor growth evaluation is terminated when a tumor diameter of 20 mm is reached.
Mice were treated with i.p. injections of peptides 24 hours after implantation of LLC tumor. In all mice receiving PBS tumor developed which reached on average a tumor volume of 1600 mm^3 in 21 days. Approximately tumor diameter was at that time point 16 mm. Thalidomide was used as a positive control.

[2] = Toxicity during escalating dose experiment: animal weight, blood markers, leukocyte count (Example III)
Description: FIG. 5. During the escalating dose experiment toxicity of LQGV (SEQ ID NO:1) was evaluated by evaluation of blood markers for kidney and liver function and leukocyte count.
FIG. 6. During the escalating dose experiment toxicity of LQGV (SEQ ID NO:1) was evaluated by monitoring of animal weight.
Assessment of side-effects. Side-effects are monitored on daily basis. a) Weight of the animals is monitored daily. b) Behavior of the animals is observed. c) Animals are checked for possible side effects such as diarrhea.
During the experiment toxicity of the administered peptides was evaluated by monitoring of animal weight (FIG. 6) and by evaluation of blood markers for kidney and liver function and leukocyte count (FIG. 5). […] It is important to compare not only between the groups but also within the groups between individual mice.

[3] = tested on: Lewis Lung Carcinoma (LLC); test: Escalating doses of peptide LQGV in Lewis Lung Carcinoma-bearing mice (Example III); conditions: for PD: number of mice with progressive disease (outgrowth); for TR: number of mice with tumor response (growth delay till day 20); for RR: tumor response rate
Description: FIG. 3 Tumor volume of Lewis Lung Carcinoma-bearing C57B16 mice treated with escalating doses of peptide LQGV (SEQ ID NO:1). Doses of 1.7, 5, 17, 50 and 170 mg/kg were tested.
Animals and tumor model. Mice (C57B16) are transplanted with the syngeneic Lewis Lung Carcinoma (LLC) subcutaneously. Treatment is stared 24 hours after implantation. The number of animals is eight per group to increase the power of this study. As we are starting the treatment when no tumor is palpable the change of error is larger compared to a study with established tumors. Treatment modalities: mice are treated with small peptides or sham control beginning one day after transplantation by i.p. injection. Mice will be injected on Monday, Wednesday and Friday, until end of experiment. Experiment ends based on criteria as tumor size >20 mm, suffering of the animal, weight loss over 20%, ulcerations. Otherwise the experiment will be terminated eight weeks after start.
Tumor diameter is measured in two directions by caliper measurements and tumor volume (V) is calculated using the formula V=0.4(A2×B) (where B represents the largest diameter and A the diameter perpendicular to B). The classification of tumor response is: progressive disease (PD), increase of tumor volume (>25%) within seven days; no change (NC), tumor volume equal to volume at start of treatment in a range of −25% and +25%; partial remission (PR), decrease of tumor volume between −25% and −90%; complete remission (CR), tumor volume less than 10% of initial volume. Tumor growth evaluation is terminated when a tumor diameter of 20 mm is reached.
Tumor volumes were analyzed using non-parametric testing for multiple groups (Kruskal Wallis) and pair wise comparison of the different groups using Mann Whitney.
Tumor response was evaluated slightly differently from proposed. As we start shortly after tumor induction, shrinkage of the tumor compared to before treatment cannot be made. […] So during the experimental time-frame outgrowth (progressive disease, PD) and tumor response (TR, growth delay till day 20) was evaluated. In Table 3 response rates are depicted.

[4] = escalating dose experiment, FIG. 5

Compound: CC(C)C[C@H](N)C(=O)N[C@@H](CCC(N)=O)C(=O)NCC(=O)N[C@H](C(=O)O)C(C)C [LQGV, Leu Gln Gly Val] (H-LQGV-OH)
- tumor growth curves compared with thalidomide [1]: comparable to Thalidomide; also recorded: comparable tumor growth curves
- tumor volume day 21 [1]: 270 mm^3
- tumor control [1]: 2/6
- Response rate CR [1]: 2
- Response rate NC [1]: 2
- Response rate PR [1]: 1
- Response rate PD [1]: 1
- mice showing a tumor response [1]: five out of six
- effect on tumor growth [1]: strong tumor growth delay
- effect on animal weight ([2]; at all doses (1.7-170 mg/kg), FIG. 6): no effect on animal weight
- effect on leukocyte number [2, 4]: no effect on leukocyte number
- effect on liver and kidney parameters (blood markers) [2, 4]: did not affect the liver and kidney parameters
- PD ([3]; 1.7 mg/kg i.p.): 9
- TR ([3]; 1.7 mg/kg i.p.): 2
- RR ([3]; 1.7 mg/kg i.p.): 18%
- PD ([3]; 5 mg/kg i.p.): 4
- TR ([3]; 5 mg/kg i.p.): 7
- RR ([3]; 5 mg/kg i.p.): 64%
- PD ([3]; 17 mg/kg i.p.): 2
- TR ([3]; 17 mg/kg i.p.): 9
- RR ([3]; 17 mg/kg i.p.): 82%
- PD ([3]; 50 mg/kg i.p.): 4
- TR ([3]; 50 mg/kg i.p.): 7
- RR ([3]; 50 mg/kg i.p.): 64%
- effect on tumor growth ([3]; 50 mg/kg, result in words): strongly inhibited tumor growth
- PD ([3]; 170 mg/kg i.p.): 4
- TR ([3]; 170 mg/kg i.p.): 7
- RR ([3]; 170 mg/kg i.p.): 64%
- effect on tumor growth ([3]; dose of 5 mg/kg, result in words): a delay in tumor growth was observed
- delay in tumor growth relative to 5 mg/kg ([3]; higher dosages (above 5 mg/kg), result in words): more pronounced

Compound: O=C1CCC(N2C(=O)c3ccccc3C2=O)C(=O)N1 (stereo not drawn) [Thalidomide, reference compound]
- tumor volume day 21 [1]: 340 mm^3
- tumor control [1]: 3/6
- Response rate CR [1]: 2
- Response rate NC [1]: 3
- Response rate PR [1]: 1
- mice showing a tumor response [1]: all animals
- effect on tumor growth ([3]; positive control group, result in words): only some tumor growth delay

Compound: Ala Gln Gly Val (AQGV; Chemically synthesized antitumor peptide AQGV) [4-mer peptide, derivative of LQGV]
- tumor volume day 21 [1]: 1030 mm^3
- tumor control [1]: 2/6
- Response rate NC [1]: 1
- Response rate PR [1]: 2
- Response rate PD [1]: 3
- effect on tumor growth [1]: tumor growth delay

Compound: LAG
- tumor volume day 21 [1]: 1550 mm^3
- tumor control [1]: 2/6
- Response rate CR [1]: 1
- Response rate PR [1]: 1
- Response rate PD [1]: 4

Compound: LQG
- tumor growth curves compared with thalidomide [1]: comparable to Thalidomide; also recorded: comparable tumor growth curves
- tumor volume day 21 [1]: 620 mm^3
- tumor control [1]: 3/6
- Response rate CR [1]: 2
- Response rate NC [1]: 4
- mice showing a tumor response [1]: all animals
- effect on tumor growth [1]: tumor growth delay

Compound: Leu Ala Gly Val (LAGV; Chemically synthesized antitumor peptide LAGV) [4-mer peptide, derivative of LQGV]
- tumor volume day 21 [1]: 1600 mm^3
- tumor control [1]: 2/6
- Response rate CR [1]: 1
- Response rate NC [1]: 1
- Response rate PR [1]: 1
- Response rate PD [1]: 3

Compound: VLPALP (Chemically synthesized antitumor peptide VLPALP) [6-mer peptide]
- tumor volume day 21 [1]: 880 mm^3
- tumor control [1]: 3/6
- Response rate CR [1]: 2
- Response rate NC [1]: 2
- Response rate PR [1]: 1
- Response rate PD [1]: 1
- mice showing a tumor response [1]: five out of six
- effect on tumor growth [1]: tumor growth delay

From US7662776B2, “Treatment of tumors using short peptides from human chorionic gonadotropin (HCG)” (Biotempt B.V., priority 2005, dated 2010)
